Drawing on ChEMBL document CHEMBL1124336, “5-Isoquinolinesulfonamide derivatives. 2. Synthesis and vasodilatory activity of N-(2-aminoethyl)-5-isoquinolinesulfonamide derivatives” (1989), this text covers Vertebral blood flow, Femoral blood flow and Change for 38 compounds.

Test [1] relates to Canis familiaris. Kind of test: Increasing effect on vertebral blood flow in anesthetized dogs compared to the effect of trapidil. The test is classed as functional, Canis lupus familiaris.
Test [2] deals with Canis familiaris. Kind of test: Increasing effect on femoral blood flow in anesthetized dogs compared to the effect of trapidil. The test is classed as functional, Canis lupus familiaris, Artery.
For test [3], the system named is Canis familiaris. Kind of test: Compound was tested for its hemodynamic effect for percentage change in heart rate in anesthetized Dogs. In kind it is functional, Canis lupus familiaris.
Test [4] deals with Canis familiaris. Kind of test: Compound was tested for its hemodynamic effect for percentage change in vertebral blood flow in anesthetized dogs. In kind it is functional, Canis lupus familiaris.
Test [5] relates to Canis familiaris. In words: Compound was tested for its hemodynamic effect for percentage change in mean blood pressure in anesthetized Dogs. In kind it is functional, Canis lupus familiaris.
Test [6] concerns Canis familiaris. In words: Compound was tested for its hemodynamic effect for percentage change in coronary blood flow in anesthetized Dogs. The test is classed as functional, Canis lupus familiaris, Artery.

In test [1], `Cl.NNS(=O)(=O)c1cccc2cnccc12` returned a Vertebral blood flow of more than 100.
Regarding `CN(CCNS(=O)(=O)c1cccc2cnccc12)C1CCCCC1`, the Vertebral blood flow in test [1] turned out to be 1.7. In test [2], the Femoral blood flow was 0.83.
The like results for `O=[N+]([O-])c1ccc(CNCCNS(=O)(=O)c2cccc3cnccc23)cc1` were, in that order, 1.5 and 2.5.
As to `CCCCCCCCN(CCN)S(=O)(=O)c1cccc2cnccc12`, the Vertebral blood flow in test [1] is on record as 0.92.
Regarding `CCCCCCN(CCN)S(=O)(=O)c1cccc2cnccc12`, the Change in test [3] is recorded as 2.8%; in test [4], 91.4%; in test [5] it was -11.4%; in test [6] it was 53.6%. Further, the Vertebral blood flow in test [1] was determined as 0.12.
The compound `CCCCCCN(CCCCCC)CCNS(=O)(=O)c1cccc2cnccc12` gave a Vertebral blood flow in test [1] of 0.48. In test [2], the Femoral blood flow was 1.2.
In test [1], `O=S(=O)(NCCNC1CCCCC1)c1cccc2cnccc12` registered a Vertebral blood flow of 1.4.
Still for that read-out and setting: with `CN(C)CCNS(=O)(=O)c1cccc2cnccc12` the figure was 1.4.
Turning to `CCCCCNCCNS(=O)(=O)c1cccc2cnccc12`, in test [1], the Vertebral blood flow was 2.4. In test [2], this compound yielded a Femoral blood flow of 1.
For `NCCCNS(=O)(=O)c1cccc2cnccc12` the same measures were 5.1 and 3.6.
`CCCCCCCCCCNCCNS(=O)(=O)c1cccc2cnccc12` registered a Vertebral blood flow in test [1] of 0.49.
The compound `NCCCCCCNS(=O)(=O)c1cccc2cnccc12` returned a Vertebral blood flow in test [1] of 1.4. Also, the Femoral blood flow in test [2] stood at 2.4.
As for `CN(CCN)S(=O)(=O)c1cccc2cnccc12`, in test [1], the Vertebral blood flow came to 1.6.
`O=S(=O)(NCCNCc1ccccc1Cl)c1cccc2cnccc12` returned a Vertebral blood flow in test [1] of 1.5. In test [2], this compound displayed a Femoral blood flow of 2.6.
The compound `O=S(=O)(NCCNCc1ccccc1)c1cccc2cnccc12` showed a Vertebral blood flow in test [1] of 0.57.
As for `CCCCCCNCCNS(=O)(=O)c1cccc2cnccc12`, the Change is listed as 3.9% in test [3], 93.7% in test [4], -16.8% in test [5] and 45.7% in test [6]. In test [1], this compound showed a Vertebral blood flow of 0.17. The compound also had a Femoral blood flow in test [2] of 0.23.
`O=S(=O)(c1cccc2cnccc12)N(CCNCc1ccccc1)Cc1ccccc1` came in with a Vertebral blood flow in test [1] of 1.8.
`CNCCNS(=O)(=O)c1cccc2cnccc12` returned a Vertebral blood flow in test [1] of 3.7. This compound also displayed a Femoral blood flow in test [2] of 1.7.
For `CCNCCN(CC)S(=O)(=O)c1cccc2cnccc12` the same measures were 0.78 and 1.1.
The like results for `COc1ccc(CNCCNS(=O)(=O)c2cccc3cnccc23)cc1OC` were, in that order, 4.3 and 3.7.
Take `CC(C)N(CCN)S(=O)(=O)c1cccc2cnccc12`: the Vertebral blood flow in test [1] was determined as 3.3.
In the case of `O=S(=O)(NCCNCc1cccc(Cl)c1)c1cccc2cnccc12`, the Vertebral blood flow in test [1] is recorded as 0.26. The compound also yielded a Femoral blood flow in test [2] of 0.83.
Compound `CC(C)N(CCNS(=O)(=O)c1cccc2cnccc12)C(C)C` displayed a Vertebral blood flow in test [1] of 2.7.
The compound `CCCCNCCNS(=O)(=O)c1cccc2cnccc12` came in with a Vertebral blood flow in test [1] of 4.6. The compound further came in with a Femoral blood flow in test [2] of 1.3.
For `COc1ccc(CNCCNS(=O)(=O)c2cccc3cnccc23)cc1` the same measures were 0.38 and 0.43.
`CCCCCCCCNCCNS(=O)(=O)c1cccc2cnccc12` registered a Vertebral blood flow in test [1] of 0.53.
In test [1], `CCCNCCNS(=O)(=O)c1cccc2cnccc12` registered a Vertebral blood flow of 2.7. The compound also came in with a Femoral blood flow in test [2] of 1.6.
For `O=S(=O)(NCCNCCc1ccccc1)c1cccc2cnccc12` the same measures were 0.31 and 0.32.
For `NCCNS(=O)(=O)c1cccc2cnccc12` the same measures were 1.8 and 2.
The compound `NCCCCNS(=O)(=O)c1cccc2cnccc12` showed a Vertebral blood flow in test [1] of 4.2. Besides, in test [2], the Femoral blood flow is 2.7.
`CCCCN(CCN)S(=O)(=O)c1cccc2cnccc12` had a Vertebral blood flow in test [1] of 0.27.
The same measure, in the same setting: with `NCCN(Cc1ccccc1)S(=O)(=O)c1cccc2cnccc12` the figure was 1.92.
On to `CCCCCCN(CCC)CCNS(=O)(=O)c1cccc2cnccc12`, for which, in test [1], the Vertebral blood flow is listed as 1.7. This compound also gave a Femoral blood flow in test [2] of 1.9.
The like results for `CNCCN(C)S(=O)(=O)c1cccc2cnccc12` were, in that order, 1.3 and 1.5.
The like results for `CCNCCNS(=O)(=O)c1cccc2cnccc12` were, in that order, 4.2 and 2.7.
For the compound `CCN(CCN)S(=O)(=O)c1cccc2cnccc12`, the Vertebral blood flow in test [1] was determined as 1.3.
`O=S(=O)(NCCNCc1ccc(Cl)cc1)c1cccc2cnccc12` gave a Vertebral blood flow in test [1] of 0.25. In test [2], this compound yielded a Femoral blood flow of 1.
With `COc1ccc([C@@H]2Sc3ccccc3N(CCN(C)C)C(=O)[C@@H]2OC(C)=O)cc1` [DILTIAZEM], the Change was -8% in test [3], 180% in test [4], -28.9% in test [5] and 91.3% in test [6]. The compound further displayed a Vertebral blood flow in test [1] of 0.15. In addition, the Femoral blood flow in test [2] is given as 0.21.
